Data reported in US7541375B2, “Azole derivatives and pharmaceutical compositions containing them” (Laboratoires Serono SA, priority 2001, dated 2009).
“And” between values parts separate entries of the source, which are not always exact repeats. Identical values can stand only once. One block for each compound: values may come before it.

How the values were obtained:
[1] = system: TNF release (TNF-α); test: Inhibition of TNF-alpha production in LPS-stimulated mice; assay type: in vivo; settings: −15 mn before LPS
Experimental: Injection of lipopolysaccharide (LPS) induces a rapid release of soluble tumor necrosis factor (TNF-α) into the periphery. This model is used to identify potential blockers of TNF release in vivo
The potency of compounds of the invention as inhibitors of serum TNFα elevation in mice treated with LPS is determined as follows:
• For per oral (p.o.) administration, compounds of the invention are formulated in 0.5% carboxymethyl cellulose/0.25% Tween 80 in saline and given orally via gavage […] to LPS administration. Dexamethasone is used as the reference compound and given at 0.1 mg/kg per orally. • C3/hen female mice (Iffa-Credo, France) are injected intraperitoneally with 0.3 mg/kg LPS (Escherichia coli, Serotype 0111:B4, Sigma Chemical Co., St. Louis, Mo.) and sacrificed 90 min later by CO2 asphyxiation. Blood is immediately taken from caudal vena cava and plasma prepared and frozen at −80° C. Each group of treatment contained 6 animals.

[2] = system: Colon C26 cell; test: Colon C26 cell anti-proliferation assay; assay type: cell-based, murine; settings: Colon C26 cells, 2×10^3 cells/well
Experimental: (§1) Compounds of the invention were tested for anti-proliferation activity against colon tumors (Colo205, HT-29, C26 and SW660 cell lines) by procedures described in Example 40 above. 2×10^3 cells/well used.

[3] = molecular target: MEK-1 (constitutively active MEK1EE) (Homo sapiens, UniProt Q02750, S218E/S222E); test: MEK-1 enzyme assay (HTRF, phosphorylation of ERK2K52A); assay type: biochemical; settings: 3 μM ATP, 2 hours room temperature
Chain of MEK-1 (constitutively active MEK1EE) (Q02750 whole entry S218E/S222E, species assumed): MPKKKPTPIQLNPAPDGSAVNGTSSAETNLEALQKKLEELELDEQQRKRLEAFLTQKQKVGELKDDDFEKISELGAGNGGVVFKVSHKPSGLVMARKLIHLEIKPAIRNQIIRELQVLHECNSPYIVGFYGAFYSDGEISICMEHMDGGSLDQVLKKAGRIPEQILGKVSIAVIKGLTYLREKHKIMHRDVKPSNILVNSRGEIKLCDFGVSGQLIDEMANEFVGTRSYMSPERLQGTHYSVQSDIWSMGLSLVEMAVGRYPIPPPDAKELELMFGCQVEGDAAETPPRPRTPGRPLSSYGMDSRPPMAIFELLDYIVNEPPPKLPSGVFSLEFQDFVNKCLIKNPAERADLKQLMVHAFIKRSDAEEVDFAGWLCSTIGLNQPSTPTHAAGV
Experimental: A 50 μl mixture containing 15 nM constitutively active MEK1EE and 300 nM of ERK2K52A were incubated either in the presence or absence of the compounds of the invention in 1% DMSO and 1× kinase buffer containing 3 μM ATP, […], […], 1 mM DTT and 100 μM Na3VO4 in Wallac 96 well black plates for 2 hours at room temperature. At the end of the incubation the enzyme reaction was quenched by adding 50 μl of assay buffer containing […] Tris-HCl, 50 mM EDTA, 0.1% BSA and a mixture of 1.25 μg/ml europium labeled anti-phosphotyrosine mAb and 5 μg/ml allophycocyanin labeled (APC) anti-GST antibody. Plates were agitated on a plate shaker for 30 minutes and phosphorylation of the ERK2K52A substrate was measured by homogenous time resolved fluorescence (HTRF) at 340 nm excitation and […] emission filters on the VICTOR V fluorescence plate reader. The results are of phosphorylation of ERK-2, with inhibition occurring at the MEK-1 level. Results were as follows for the specified compounds: […]

[4] = system: murine colon carcinoma C26 cells; test: Growth of tumors induced in CDF1 mice with murine colon carcinoma C26 cells; assay type: in vivo
Experimental: The aim of this study was to evaluate the effects of Example No. 30 in FIG. 1: […] Control group (empty circles) was treated with NP3S (5% N-methylpyrrolidone/30% PEG400/25% PEG200/20% Propylene Glycol in Saline) per os bid. […] Drugs treatment started 8 days following C26 cell injection and then continued for 13 days. […] Tumor volume and body weight were monitored every three days from day 8 until day 20.

[5] = molecular target: MEK-1/ERK-2 (Homo sapiens, UniProt Q02750, S218E/S222E); test: MEK-1/ERK-2 enzyme cascade assay (33P incorporation into MBP biotin); assay type: biochemical; settings: 3 μM ATP, phosphorylation of myelin basic protein
Chain of MEK-1/ERK-2 (Q02750 whole entry S218E/S222E): as the sequence (Q02750 whole entry S218E/S222E, species assumed) above
Experimental: MEK-1/ERK-2 Enzyme Cascade Assay
A 50 μl mixture containing 40 nM of constitutively active MEK1EE, 160 nM of ERK2 and 10 μM MBP biotin were incubated in the presence or absence of the below compound of the invention in 1% DMSO and 1× kinase buffer containing 3 μM ATP, 50 mM Tris-HCl pH 8.0, 10 mM MgCl2, 1 mM DTT, 100 μM Na3VO4 and […] ^33P-γATP in Wallac 96 well white plates for 2 hours at room temperature. At the end of the incubation the enzyme reaction was quenched by adding 200 μl Phosphate buffered saline (PBS) solution containing 1.25 mg/ml Streptavidin SPA beads, 50 mM EDTA and 0.1% Triton 100 and incubated further for 12-14 hours at room temperature. ^33P-γATP incorporation into MBP biotin was measured using the top counts. The assay read-out is phosphorylation of myelin basic protein, which is a representative substrate of ERK-2-phos. This assay is a further confirmatory screen of the assay of Example 38 above.

[6] = system: Breast cancer MCF-7 cells; test: MCF-7 tumor cell proliferation assay; assay type: cell-based; settings: MCF-7, ATP lite cell proliferation kit
[7] = system: SW 660 cell (ATCC CCL-227); test: SW 660 cell anti-proliferation assay; assay type: cell-based; settings: SW 660 cells, 2×10^3 cells/well
Experimental: as §1

[8] = system: Colon 205 cell (ATCC CCL-222); test: Colon 205 cell anti-proliferation assay; assay type: cell-based; settings: Colon 205 cells, 2×10^3 cells/well
Experimental: as §1

[9] = system: ovarian cancer OVCAR-3 cells; test: OVCAR-3 tumor cell proliferation assay; assay type: cell-based; settings: OVCAR-3, ATP lite cell proliferation kit
[10] = system: HT-29 cell (ATCC HTB-38); test: HT-29 cell anti-proliferation assay; assay type: cell-based; settings: HT-29 cells, 2×10^3 cells/well
Experimental: as §1

[11] = system: primary rat granulosa cell; settings: compound at 10 nM to 100 nM in the presence of picomolar FSH (2 to 5 picomolar)
Experimental: Cells were plated at 5000, 8,000 and 20,000 cells/well/200 μl of GAB medium on poly-D-lysine coated 96-well tissue culture plates. Plates were incubated at 37° C. in a 5% CO/95% air incubator for 3 days. […] The compound of the invention and picomolar FSH were then added to the cultures. Cells were incubated @ 37° C. in 5% CO2. Three days later, cell supernatants were collected and diluted 1:100 in GAB medium for measurement of estradiol by RIA. The RIA was performed according to manufacturer directions except that an estradiol standard was prepared in absolute ethanol at 100 ng/ml and then further diluted in GAB medium, instead of kit buffer.

[12] = system: Colon Adeno Carcinoma (Grade II) (HT-29 cell line; ATCC HTB-38); settings: HT-29 cell line (Example 42)
Experimental: (§2) Breast cancer MCF-7 cells or ovarian cancer OVCAR-3 cells were plated in 96 well Packard white plates at 4×10^3 cells/well and cultured overnight at 37° C. in 5% CO2. The below specified test compounds were serially diluted in 100% DMSO and subsequently added to cells to reach a final concentration of 0.5% DMSO. MCF-7 and OVCAR-3 (ATCC HTB-161) plates were incubated for an additional 4 to 5 days respectively at 37° C. and 5% CO2 and cell proliferation was quantitated using the ATP lite cell proliferation kit (Packard).
(§3) (R) 4-iodo-benzoic acid 1-imidazol-1-yl methyl-2-phenoxy-ethyl ester (Example No. 1) was tested for anti-proliferation activity against additional tumor cell types as specified below by procedures described in Example 39 above. American Type Culture Collection (ATCC) deposit numbers are indicated below for many of the tested cell types. Results express, as follows, the concentration of compound of the invention (μM) required to inhibit the proliferation of the tumor cells by 50 percent relative untreated controls (i.e. IC50 (μM)).

[13] = system: Kidney Adeno Carcinoma (ACHN cell line; ATCC CRL-1611)
Experimental: as §2, §3

[14] = system: Lung Carcinoma (A549 cell line; ATCC CCL-185)
Experimental: as §2, §3

[15] = system: Chronic Myelogenous Leukemia (K562 cell line; ATCC CCL-243)
Experimental: as §2, §3

[16] = system: Malignant Melanoma (SK-MEL-5 cell line; ATCC HTB-70)
Experimental: as §2, §3

[17] = system: Prostate Adenocarcinoma (PC-3 cell line; ATCC CRL-1435)
Experimental: as §2, §3

[18] = system: Breast Ductal Carcinoma (T47D cell line; ATCC HTB-133)
Experimental: as §2, §3

[19] = system: Colon Adeno Carcinoma (DLD-1 cell line; ATCC CCL-221)
Experimental: as §2, §3

[20] = system: Pancreatic Carcinoma (MIA PaCa-2 cell line; ATCC CRL-1420)
Experimental: as §2, §3

[21] = system: Lung Carcinoma (PC-6 cell line)
Experimental: as §2, §3

[22] = system: Breast Adeno Carcinoma (MCF-7 cell line); settings: MCF-7 cell line (Example 42)
Experimental: as §2, §3

[23] = system: Promyelocytic Leukemia (HL-60 cell line; ATCC CRL-240)
Experimental: as §2, §3

[24] = system: Kidney Carcinoma (A498 cell line; ATCC HTB-44)
Experimental: as §2, §3

[25] = system: Neuroepithelioma (SK-N-MC cell line; ATCC HTB-10)
Experimental: as §2, §3

[26] = system: Pancreatic Epithelioid Carcinoma (PANC-1 cell line; ATCC CRL-1469)
Experimental: as §2, §3

SMILES: C[C@@H]1C[C@H]2[C@@H]3CCC4=CC(=O)C=C[C@]4(C)[C@@]3(F)[C@@H](O)C[C@]2(C)[C@@]1(O)C(=O)CO [Dexamethasone, reference compound]
TNF Release vs LPS inj. % of inhibition Mean ± SEM ([1]; 0.1 mg/kg p.o.): 86 ± 6% and 88 ± 1%

SMILES: N#Cc1ccc(OCC(Cn2ccnc2Cl)NC(=O)c2ccc(I)cc2)cc1 (stereo not shown) [Example 35, N-[1-(2-Chloro-imidazol-1-ylmethyl)-2-(4-cyano-phenoxy)-ethyl]-4-iodo-benzamide]
IC50 ([2]; Mus musculus): 0.3 µM

IC50 [3]: 0.021 µM
SMILES: O=C(NC(COc1ccc(F)cc1)Cn1ccnc1)c1ccc(I)cc1 (stereo not shown) [Example 30, N-[2-(4-Fluoro-phenoxy)-1-imidazol-1-ylmethyl-ethyl]-4-iodo-benzamide]
TNF Release vs LPS inj. % of inhibition Mean ± SEM ([1]; 12.5 mg/kg p.o.): 77 ± 2% | TNF Release vs LPS inj. % of inhibition Mean ± SEM ([1]; 50 mg/kg p.o.): 85 ± 3% | tumor-induced body weight loss ([4]; 50 mg/kg p.o. bid): significant prevention of tumor-induced body weight loss | tumor-induced body weight loss ([4]; 100 mg/kg p.o. bid): significant prevention of tumor-induced body weight loss | inhibition of tumor growth rate evaluated at day 20 ([4]; 100 mg/kg p.o. bid, day 20, vs NP3S control): 37% | tumor growth vs NP3S control group ([4]; 100 mg/kg p.o. bid, significant from day 11 to day 20): reduced tumor growth

SMILES: O=P1(N(CCCl)CCCl)NCCCO1 (stereo not shown) [Cyclophosphamide, reference compound]
inhibition of tumor growth at day 20 ([4]; 50 mg/kg s.c. every third day, 5 treatments, day 20): 73% | tumor growth (tumor volume) ([4]; 50 mg/kg s.c. every third day, day 11 until day 20 (p<0.001)): significantly slowed down tumor growth | tumor-associated loss in body weight ([4]; 50 mg/kg s.c. every third day, from day 11): markedly prevented

IC50 [3]: 1.63 ± 0.241 µM | IC50 [5]: 1.78 ± 0.254 µM
SMILES: COc1ccc(C(=O)OC(COc2ccccc2)Cn2ccnc2)cc1 (racemic) [4-methoxy-benzoic acid 1-imidazol-1-yl methyl-2-phenoxy-ethyl ester (racemic), 4-methoxy-benzoic acid 1-imidazol-1-yl methyl-2-phenoxy-ethyl ester]

IC50 ([6]; Homo sapiens, MCF7): 32.5 ± 3.5 µM | IC50 [3]: 0.86 ± 0.093 µM | IC50 [5]: 0.92 ± 0.174 µM | IC50 ([9]; Homo sapiens): 40 µM | IC50 ([10]; Homo sapiens): 27.5 µM
SMILES: COc1ccc(C(=O)O[C@@H](COc2ccccc2)Cn2ccnc2)cc1 [Example 6, (R)-4-Methoxy-benzoic acid 1-imidazol-1-yl methyl-2-phenoxy-ethyl ester]
IC50 [7]: 20 µM | IC50 [8]: 22.5 µM

SMILES: O=C(O[C@@H](COc1cccnc1)Cn1ccnc1)c1ccc(I)cc1 [Example 22, 4-Iodo-benzoic acid 1-imidazol-3-yl methyl-2-(pyridin-3-yloxy)-ethyl ester]
IC50 [3]: 0.011 µM | IC50 ([2]; Mus musculus): 1.08 µM

IC50 [3]: 0.015 µM
SMILES: O=C(OC(COc1ccc([N+](=O)[O-])cc1)Cn1ccnc1)c1ccc(I)cc1 (stereo not shown) [Example 18, 4-Iodo-benzoic acid 2-imidazol-1-yl-1-(4-nitro-phenoxymethyl)-ethyl ester]
IC50 ([2]; Mus musculus): 0.57 µM

SMILES: O=C(NC(COc1ccc(F)cc1)Cn1ccnc1Cl)c1ccc(I)cc1 (stereo not shown) [Example 34, N-[1-(2-Chloro-imidazol-1-ylmethyl)-2-(4-fluoro-phenoxy)-ethyl]-4-iodo-benzamide]
IC50 ([2]; Mus musculus): 1.25 µM

SMILES: O=C(OC(COc1ccccc1)Cn1ccnc1)c1ccc(I)cc1 (stereo not shown) [Example 1, 4-Iodo-benzoic acid 1-imidazol-1-yl methyl-2-phenoxy-ethyl ester]
estradiol production [11]: induces estradiol production | IC50 [6]: 15 ± 7.1 µM | IC50 [3]: 0.039 ± 0.012 µM | IC50 [5]: 0.036 ± 0.008 µM | IC50 [7]: 2.1 µM | IC50 [8]: 1.4 µM | IC50 [9]: 25 µM | IC50 [12]: 4 µM | IC50 [13]: > 100 µM | IC50 [14]: 25 µM | IC50 [15]: 33 µM | IC50 [16]: 11 µM | IC50 [17]: 24 µM | IC50 [18]: 11 µM | IC50 [19]: 36 µM | IC50 [20]: 3.1 µM | IC50 [21]: 43 µM | IC50 [22]: 33 µM | IC50 [23]: 3.6 µM | IC50 [24]: 54 µM | IC50 [25]: 6.7 µM | IC50 [26]: > 100 µM | IC50 [2]: 2.33 µM | IC50 [10]: 3.5 µM

IC50 [3]: 0.092 µM | IC50 [5]: 0.085 µM | IC50 ([9]; Homo sapiens): 50 µM | IC50 ([10]; Homo sapiens): 2.8 µM
SMILES: O=C(N[C@@H](COc1ccccc1)Cn1ccnc1)c1ccc(I)cc1 [Example 27, N-(1-imidazol-1-ylmethyl-2-phenoxy-ethyl)-4-iodo-benzamide]
TNF Release vs LPS inj. % of inhibition Mean ± SEM ([1]; 12.5 mg/kg p.o.): 32 ± 5% | TNF Release vs LPS inj. % of inhibition Mean ± SEM ([1]; 50 mg/kg p.o.): 39 ± 3% | IC50 [7]: 2.2 µM | IC50 [8]: 2.1 µM
